# From US20100048498A1, “STABLE NON-DIHYDRATE AZITHROMYCIN ORAL SUSPENSIONS” (priority 2004, published 2010)
# Assays:
# [1] = Stability of non-dihydrate azithromycin in suspension (POS formulation II or bulk drug in water); SS-NMR quantification of form A; type: physicochemical
# Protocol: The stability of various forms of non-dihydrate azithromycin, in water and in flavored oral suspensions, was evaluated. Specifically, non-dihydrate azithromycin forms G, M, N, F and J were separately used in POS formulation II. These POS formulations were constituted by mixing with 18 mls of water. The suspensions were then stored for 1, 5 and 10 days at either 5° C. or 30° C. Suspensions of bulk azithromycin forms G, M, N, F and J were also constituted with 18 mls of water and stored under the same conditions.
# Upon conclusion of the storage time period the suspensions were filtered and suspended solids collected as described previously.
# [2] = Effect of individual flavorings and sucrose on conversion of azithromycin form G to form A in pH 8.16 buffer; type: physicochemical; parameters: key: AC means all converted to form A; details: 18 mls pH 8.16 buffer, room temperature
# Protocol: To evaluate a proposed excipient, the active dose of the azithromycin was suspended with the desired amount of potential excipient in a 0.1 M phosphate buffer system adjusted to a pH of 8.16. The buffer system was created by dissolving 13.738 g of NaH2PO4.H2O in 900 ml of water, adjusting the pH to 8.16 with sodium hydroxide, and diluting the solution to 1 liter with water. The sample, once constituted with buffer, was then stored at room temperature for the desired constituted product shelf-life. The azithromycin product was then isolated through filtration, and the resulting solid filtrate analyzed by a Solid-State Nuclear Magnetic Resonance method described previously that allows for quantitation of the dihydrate form present.
# The effect of various individual flavoring components and of sucrose upon conversion of azithromycin form G to azithromycin dihydrate (form A), in suspensions, were evaluated as follows.
# An 820 mg dose of form G azithromycin was weighed and mixed with 200 mg of each flavoring or sucrose. The mass of each flavoring, used in this test, was chosen to match that of the anticipated required amount for effective flavoring in the constituted POS. In this example, five flavorings, specifically artificial crème de vanilla, B&C banana, Trusil banana, Trusil cherry and artificial grape were investigated in addition to sucrose. Each of the binary samples were then constituted with 18 mls of pH=8.16 buffer and stored for 1, 5 and 10-days at room temperature.
# A control suspension of azithromycin form G constituted with 18 mls of pH=8.16 buffer was run with each series of experiments using the same storage conditions. Upon completion of the constituted storage time period these samples were filtered to isolate drug product and analyzed using the SS-NMR method to quantify the amount of azithromycin dihydrate present.
smiles,measurement,setting,value
"CC[C@H]1OC(=O)[C@H](C)[C@@H](O[C@H]2C[C@@](C)(OC)[C@@H](O)[C@H](C)O2)[C@H](C)[C@@H](O[C@@H]2O[C@H](C)C[C@H](N(C)C)[C@H]2O)[C@](C)(O)C[C@@H](C)CN(C)[C@H](C)[C@@H](O)[C@]1(C)O [Form G, azithromycin sesquihydrate]","% A (azithromycin dihydrate, form A, of recovered azithromycin)","[1]; Bulk Drug in 18 mls water, 5° C., Day 1",1%
same,"% A (azithromycin dihydrate, form A, of recovered azithromycin)","[1]; Bulk Drug in 18 mls water, 5° C., Day 5",6%
same,"% A (azithromycin dihydrate, form A, of recovered azithromycin)","[1]; Bulk Drug in 18 mls water, 5° C., Day 10",12%
same,"% A (azithromycin dihydrate, form A, of recovered azithromycin)","[1]; Bulk Drug in 18 mls water, 30° C., Day 1",3%
same,"% A (azithromycin dihydrate, form A, of recovered azithromycin)","[1]; Bulk Drug in 18 mls water, 30° C., Day 5",26%
same,"% A (azithromycin dihydrate, form A, of recovered azithromycin)","[1]; Bulk Drug in 18 mls water, 30° C., Day 10",73%
same,"% A (azithromycin dihydrate, form A, of recovered azithromycin)","[1]; Formulation II constituted with 18 mls water, 5° C., Day 1",72%
same,"% A (azithromycin dihydrate, form A, of recovered azithromycin)","[1]; Formulation II constituted with 18 mls water, 5° C., Day 5",75%
same,"% A (azithromycin dihydrate, form A, of recovered azithromycin)","[1]; Formulation II constituted with 18 mls water, 5° C., Day 10",78%
same,"% A (azithromycin dihydrate, form A, of recovered azithromycin)","[1]; Formulation II constituted with 18 mls water, 30° C., Day 1",82%
same,"% A (azithromycin dihydrate, form A, of recovered azithromycin)","[1]; Formulation II constituted with 18 mls water, 30° C., Day 5",74%
same,"% A (azithromycin dihydrate, form A, of recovered azithromycin)","[1]; Formulation II constituted with 18 mls water, 30° C., Day 10",76%
same,Δ % Form A,"[2]; 820 mg form G + 200 mg Artificial Crème de Vanilla Flavor, constituted 1 day, listed as form G, sesquihydrate",did not exhibit conversion
same,Δ % Form A,"[2]; 820 mg form G + 200 mg Artificial Crème de Vanilla Flavor, constituted 1 day, sesquihydrate",0%
same,Δ % Form A,"[2]; 820 mg form G + 200 mg Artificial Crème de Vanilla Flavor, constituted 5 days",4%
same,Δ % Form A,"[2]; 820 mg form G + 200 mg Artificial Crème de Vanilla Flavor, constituted 10 days",30%
same,Δ % Form A,"[2]; 820 mg form G + 200 mg Artificial Grape Flavor, constituted 1 day",57%
same,Δ % Form A,"[2]; 820 mg form G + 200 mg Artificial Grape Flavor, constituted 5 days",75%
same,Δ % Form A,"[2]; 820 mg form G + 200 mg Artificial Grape Flavor, constituted 10 days",AC
same,Δ % Form A,"[2]; 820 mg form G + 200 mg B&C Banana Flavor, constituted 1 day, listed as form G, sesquihydrate",did not exhibit conversion
same,Δ % Form A,"[2]; 820 mg form G + 200 mg B&C Banana Flavor, constituted 1 day, sesquihydrate",0%
same,Δ % Form A,"[2]; 820 mg form G + 200 mg B&C Banana Flavor, constituted 5 days",27%
same,Δ % Form A,"[2]; 820 mg form G + 200 mg B&C Banana Flavor, constituted 10 days",AC
same,Δ % Form A,"[2]; 820 mg form G + 200 mg Sucrose, constituted 1 day",2%
same,Δ % Form A,"[2]; 820 mg form G + 200 mg Sucrose, constituted 5 days",1%
same,Δ % Form A,"[2]; 820 mg form G + 200 mg Sucrose, constituted 10 days, listed as form G, sesquihydrate",only minimal conversion
same,Δ % Form A,"[2]; 820 mg form G + 200 mg Sucrose, constituted 10 days, sesquihydrate",6%
same,Δ % Form A,"[2]; 820 mg form G + 200 mg Trusil Banana Flavor, constituted 1 day",32%
same,Δ % Form A,"[2]; 820 mg form G + 200 mg Trusil Banana Flavor, constituted 5 days",57%
same,Δ % Form A,"[2]; 820 mg form G + 200 mg Trusil Banana Flavor, constituted 10 days",AC
same,Δ % Form A,"[2]; 820 mg form G + 200 mg Trusil Cherry Flavor, constituted 1 day",32%
same,Δ % Form A,"[2]; 820 mg form G + 200 mg Trusil Cherry Flavor, constituted 5 days",75%
same,Δ % Form A,"[2]; 820 mg form G + 200 mg Trusil Cherry Flavor, constituted 10 days",AC
